Test results taken from patent publication US20220288228A1, “METHODS OF CANCER TREATMENT BY DELIVERY OF siRNAs AGAINST BCLXL AND MCL1 USING A POLYPEPTIDE NANOPARTICLE” (Sirnaomics, Inc., priority 2021, published 2022).

Assays:
BCLxL = BCLxL (Homo sapiens, UniProt Q07817); details: consequence of its inhibition of BCLxL; cited from earlier work
FaDu H&N cancer cells = assay: Sensitivity of FaDu cells to cisplatin with siRNAs; type: cell-based
Protocol: BCLxL and MCL1 siRNAs were mixed together in Lipofectamine RNAiMax and used to transfect FaDu H&N cancer cells. Final combined siRNA concentrations of 0.05 nM, 0.15 nM and 0.45 nM were compared with the effect of a non-silencing (NS) siRNA administered at the same concentrations. The effect of treatment with siRNAs on sensitivity to cisplatin (at 0-64 μM) also were evaluated.

Chain of BCLxL (Q07817 whole entry, species assumed): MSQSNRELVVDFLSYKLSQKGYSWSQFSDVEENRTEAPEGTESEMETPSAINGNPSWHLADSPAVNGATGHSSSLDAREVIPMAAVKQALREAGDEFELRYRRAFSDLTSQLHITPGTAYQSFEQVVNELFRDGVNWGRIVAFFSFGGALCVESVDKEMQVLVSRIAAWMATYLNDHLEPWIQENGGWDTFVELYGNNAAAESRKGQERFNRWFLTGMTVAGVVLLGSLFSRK

CC1(C)CCC(c2ccc(Cl)cc2)=C(CN2CCN(c3ccc(C(=O)NS(=O)(=O)c4ccc(N[C@H](CCN5CCOCC5)CSc5ccccc5)c(S(=O)(=O)C(F)(F)F)c4)cc3)CC2)C1 [ABT263]
thrombocytopenia (BCLxL): induces thrombocytopenia

N.N.[Cl][Pt][Cl] [cisplatin]
amount of cisplatin required to cause 100% inhibition of the tumor cell viability (FaDu H&N cancer cells; in the presence of 0.45 nM NS siRNA): ~32 µM | amount of cisplatin required to cause 100% inhibition of the tumor cell viability (FaDu H&N cancer cells; in the presence of 0.45 nM of BCLxL/MCL1 siRNAs): < 1 µM
